Laboratory results taken from patent publication US20220040335A1, “RADIOLABELED PABA AND DERIVATIVES THEREOF FOR USE AS FUNCTIONAL RENAL IMAGING AGENTS” (priority 2018, published 2022).
“Also recorded” adds a separate entry of the source.

Experiment: Dynamic PET/CT renal imaging (renogram) after intravenous injection in healthy rats
Type: in vivo, Wistar rats
Protocol: Methods for renal imaging: ^11C-PABA was synthesized using cGMP conditions at the JHU PET Center. Four female healthy Wistar rats (250-275 g of bodyweight) were injected with 30.5±10.3 MBq of ^11C-PABA through a tail-vein catheter and a dynamic PET scan was performed (15 frames×20 seconds, 5 frames×1 minute, 10 frames×5 minutes, total of 60 minutes) using the nanoScan PET/CT (Mediso). Subsequently, CT imaging was performed for anatomical co-registration. As a control, the same rats were also injected intravenously with 18.5 MBq of ^99mTc-MAG3 (Cardinal Health) and scanned using planar scintigraphy with the nanoSPECT/CT (Nanoscan). The images were analyzed with VivoQuant 3.0 (Invicro) and regions of interest were drawn using the CT as reference.

[1] = representative healthy rat, FIG. 3

time after injection at which PET/CT signal localized in the right kidney (FIG. 4A): 220 to 240 s | signal in the kidneys compared to liver and spleen (at time-to-peak, healthy rats, FIG. 3): 30-40 × | background accumulation of the tracer in other organs (in words) (dynamic PET, healthy rats): very low background accumulation | time-to-peak in time-activity curves (kidneys, dynamic PET after IV injection of 30.5±10.3 MBq, healthy female Wistar rats): 9.5 ± 1.4 min | cortical phase of renogram [1]: 4.7 to 10 min | vascular phase of renogram [1]: 0 to 4.7 min
SMILES: Nc1ccc([11C](=O)O)cc1 [^11C-PABA, [Carboxy-11C] 4-Aminobenzoic acid]
renal clearance / excretion from kidneys (in words) (dynamic PET after IV injection, healthy rats, FIG. 2): rapid excretion; also recorded: rapid renal clearance; also recorded: rapidly localized in the kidneys
